According to patent EP4800015A1, “AZABICYCLO DERIVATIVE AND PREPARATION METHOD THEREFOR, AND USE” (Zhejiang Hisun Pharmaceutical Co., Ltd., priority 2023, dated 2025):

The molecules below were run against T1, recombinant human WRN (Homo sapiens, UniProt Q14191) (assay: Inhibition of WRN enzyme activity (ATPase), ADP-Glo Kinase Assay). Conditions: WRN protein 5 nM, Flap 0.1 nM, ATP 30 µM.
T1 construct: purchased BPS 101264
Type: biochemical
From the text: The following method was used to determine the degree of inhibition of recombinant human WRN ATPase activity by the compounds of the present disclosure in vitro. In this method, ADP-Glo™ Kinase Assay kit (catalog No. V9102) from Promega was used. Detailed experimental procedures can be found in the kit manual.
The experimental procedure was briefly described as follows: test compounds were first dissolved in DMSO to prepare stock solutions, followed by serial dilution using reaction buffer (30 mM Tris, pH 7.5, 2 mM MgCl2, 50 mM NaCl, 0.02% BSA, 0.1% Pluronic F127), with final concentrations of test compounds in the reaction system ranging from 1000 nM to 0.004 nM; WRN protein (purchased from BPS, catalog No. 101264), substrate 5-flap oligonucleotide (Flap26) (synthesized by Shanghai Generay Biotech Co., Ltd., sequence 5'-[…]-3'), and ATP working solution (from ADP-Glo™ Kinase Assay kit component V915A) were prepared using reaction buffer. Reactions were performed in 384-well microplates. At first the compounds and recombinant human WRN protein (final concentration 5 nM) were added to the wells and the plate was incubated at room temperature for 15 minutes, then Flap solution (final concentration 0.1 nM) and ATP solution (final concentration 30 µM) were added to the reaction solution and the plate was incubated at room temperature for 10 minutes. Subsequently, 5 µL of ADP-Glo Reagent was added to the reaction system and incubated at room temperature for 40 minutes. Then 10 µL of Kinase Detection Reagent was added to the reaction system and incubated at room temperature for 30 minutes. After the incubation was completed, chemiluminescence intensity values of each well were measured using a microplate reader in luminescence mode. The percentage inhibition of the compounds at each concentration was calculated by comparison with the luminescence intensity values of the control group (0.1% DMSO), and IC50 values of compounds were obtained by nonlinear regression analysis of compound concentration logarithm-inhibition rate using GraphPad Prism 9 software, as shown in Table 1.
The IC50 value results of the compounds of the present disclosure are expressed as AA and A, respectively as follows: "AA" indicates IC50 ≤ 1 nM; "A" indicates 1 nM < IC50 ≤ 100 nM. Table 1 IC50 of the compounds of the present disclosure for inhibiting WRN enzyme activity (ATPase)

T1 sequence (Q14191 whole entry): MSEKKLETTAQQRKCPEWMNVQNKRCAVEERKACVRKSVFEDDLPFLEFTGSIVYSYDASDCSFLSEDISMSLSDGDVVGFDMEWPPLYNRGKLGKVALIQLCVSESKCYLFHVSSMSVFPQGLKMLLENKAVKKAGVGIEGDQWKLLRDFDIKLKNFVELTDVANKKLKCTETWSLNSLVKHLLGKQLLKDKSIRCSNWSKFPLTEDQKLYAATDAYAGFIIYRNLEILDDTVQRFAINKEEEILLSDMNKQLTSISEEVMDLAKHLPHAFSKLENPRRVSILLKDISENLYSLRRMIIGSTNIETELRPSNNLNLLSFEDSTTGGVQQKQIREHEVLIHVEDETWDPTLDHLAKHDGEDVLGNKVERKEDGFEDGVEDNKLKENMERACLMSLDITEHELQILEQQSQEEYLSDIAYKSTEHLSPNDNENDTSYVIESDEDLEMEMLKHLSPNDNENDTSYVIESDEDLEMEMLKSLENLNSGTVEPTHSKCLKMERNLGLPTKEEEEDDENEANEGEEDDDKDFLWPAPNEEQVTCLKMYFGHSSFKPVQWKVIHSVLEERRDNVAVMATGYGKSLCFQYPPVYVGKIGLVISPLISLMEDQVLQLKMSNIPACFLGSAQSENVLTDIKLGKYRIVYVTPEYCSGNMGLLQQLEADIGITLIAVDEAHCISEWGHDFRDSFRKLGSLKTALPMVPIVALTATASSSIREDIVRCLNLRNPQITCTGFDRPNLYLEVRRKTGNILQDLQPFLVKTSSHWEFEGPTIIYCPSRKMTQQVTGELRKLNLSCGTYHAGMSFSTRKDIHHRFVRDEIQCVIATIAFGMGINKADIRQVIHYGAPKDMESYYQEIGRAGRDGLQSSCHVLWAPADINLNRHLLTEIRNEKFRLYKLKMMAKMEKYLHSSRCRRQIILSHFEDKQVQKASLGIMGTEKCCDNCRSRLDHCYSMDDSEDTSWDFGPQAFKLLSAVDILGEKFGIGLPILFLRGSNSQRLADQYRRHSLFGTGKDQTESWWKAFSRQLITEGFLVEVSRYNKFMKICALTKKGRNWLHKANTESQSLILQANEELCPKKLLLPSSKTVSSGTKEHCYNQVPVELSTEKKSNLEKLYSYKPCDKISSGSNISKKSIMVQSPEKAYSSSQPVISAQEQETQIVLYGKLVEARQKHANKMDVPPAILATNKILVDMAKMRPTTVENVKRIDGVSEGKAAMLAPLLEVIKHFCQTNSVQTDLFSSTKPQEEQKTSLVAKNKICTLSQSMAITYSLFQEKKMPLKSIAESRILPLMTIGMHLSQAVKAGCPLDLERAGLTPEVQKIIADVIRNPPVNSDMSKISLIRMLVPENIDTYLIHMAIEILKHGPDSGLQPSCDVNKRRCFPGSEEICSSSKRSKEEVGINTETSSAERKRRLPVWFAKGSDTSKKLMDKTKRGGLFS

CCc1c(N2CCN(C(=O)c3ncnc(C)c3O)CC2)c(=O)n2nc(-c3ccc4nc[nH]c4c3)nc2n1CC(=O)Nc1ccc(C(F)(F)F)cc1Cl [Example 138, 2-(2-(1H-benzo[d]imidazol-6-yl)-5-ethyl-6-(4-(5-hydroxy-6-methylpyrimidine-4-carbonyl)piperazin-1-yl)-7-oxo-[1,2,4]triazolo[1,5-a]pyrimidin-4(7H)-yl)-N-(2-chloro-4-(trifluoromethyl)phenyl) acetamide] gave an IC50 of 1 to 100 nM.

Same assay, conditions: WRN protein 5 nM, Flap 0.1 nM, ATP 30 µM; read-out: IC50

CCc1c(N2CCN(C(=O)c3ncnc(C)c3O)CC2)c(=O)n2nc(-c3ccc4ccoc4c3)nc2n1CC(=O)Nc1ccc(SC(F)(F)F)cc1 [Example 90, 2-(2-(benzofuran-6-yl)-5-ethyl-6-(4-(5-hydroxy-6-methylpyrimidine-4-carbonyl)piperazin-1-yl)-7-oxo-[1,2,4]triazolo[1,5-a]pyrimidin-4(7H)-yl)-N-(4-((trifluoromethyl)thio)phenyl)acetamide] and CCc1c(N2CCN(C(=O)c3ncccc3O)CC2)c(=O)n2nc(-c3ccc4ccoc4c3)nc2n1CC(=O)Nc1ccc(S(F)(F)(F)(F)F)cc1 [Example 78, 2-(2-(benzofuran-6-yl)-5-ethyl-6-(4-(3-hydroxypicolinoyl)piperazin-1-yl)-7-oxo-[1,2,4]triazolo[1 ,5-a]pyrimidin-4(7H)-yl)-N-(4-(pentafluoro-λ^6-sulfaneyl)phenyl)acetamide] fall in the same range of IC50: 1 to 100 nM for the first, 1 to 100 nM for the second.

CCc1c(N2CCN(C(=O)c3ncnc(C)c3O)CC2)c(=O)n2nc(C3=CC4CN(C)CC4C3)nc2n1CC(=O)Nc1ccc(C(F)(F)F)cc1Cl (centres unmarked) [Example 144, N-(2-chloro-4-(trifluoromethyl)phenyl)-2-(5-ethyl-6-(4-(5-hydroxy-6-methylpyrimidine-4-carbonyl)piperazin-1-yl)-2-(2-methyl-1,2,3,3a,4,6a-hexahydrocyclopenta[c]pyrrol-5-yl)-7-oxo-[1,2,4]triazolo[1,5-a]pyrimidin-4(7H)-yl)acetamide] and CCc1c(N2CCN(C(=O)c3ncnc(C)c3O)CC2)c(=O)n2nc(C3=CC4(CCC4)C3)nc2n1CC(=O)Nc1ccc(C(F)(F)F)cc1Cl [Example 50, N-(2-chloro-4-(trifluoromethyl)phenyl)-2-(5-ethyl-6-(4-(5-hydroxy-6-methylpyrimidine-4-carbonyl)piperazin-1-yl)-7-oxo-2-(spiro[3.3]hept-1-en-2-yl)-[1,2,4]triazolo[1,5-a]pyrimidin-4(7H)-yl)ac etamide] fall in the same range of IC50: 1 to 100 nM for the first, 1 to 100 nM for the second.

CCc1c(N2CCN(C(=O)c3ncncc3O)CC2)c(=O)n2nc(C3=CC4COCC4C3)nc2n1CC(=O)Nc1ccc(C(F)(F)F)cc1Cl (centres unmarked) [Example 160, N-(2-chloro-4-(trifluoromethyl)phenyl)-2-(5-ethyl-6-(4-(5-hydroxypyrimidine-4-carbonyl)piperazin-1-yl)-7-oxo-2-(3,3a,4,6a-tetrahydro-1H-cyclopenta[c]furan-5-yl)-[1,2,4]triazolo[1,5-a]pyrimidin-4(7H)-yl)acetamide] and CCc1c(N2CCN(C(=O)c3ncnc(C)c3O)CC2)c(=O)n2nc(-c3cnc4[nH]ncc4c3)nc2n1CC(=O)Nc1ccc(C(F)(F)F)cc1Cl [Example 114, N-(2-chloro-4-(trifluoromethyl)phenyl)-2-(5-ethyl-6-(4-(5-hydroxy-6-methylpyrimidine-4-carbonyl)piperazin-1-yl)-7-oxo-2-(1H-pyrazolo[3,4-b]pyridin-5-yl)-[1,2,4]triazolo[1,5-a]pyrimidin-4(7 H)-yl)acetamide] fall in the same range of IC50: 1 to 100 nM for the first, 1 to 100 nM for the second.

Compared with CCc1c(N2CCN(C(=O)c3ncnc(C)c3O)CC2)c(=O)n2nc(-c3ccc4c(c3)CN(CC(F)(F)F)CCO4)nc2n1CC(=O)Nc1ccc(C(F)(F)F)cc1Cl [Example 180, N-(2-chloro-4-(trifluoromethyl)phenyl)-2-(5-ethyl-6-(4-(5-hydroxy-6-methylpyrimidine-4-carbonyl)piperazin-1-yl)-7-oxo-2-(4-(2,2,2-trifluoroethyl)-2,3,4,5-tetrahydrobenzo[f][1,4]oxazepin-7-yl) -[1,2,4]triazolo[1,5-a]pyrimidin-4(7H)-yl)acetamide], CCc1c(N2CCN(C(=O)c3ncnc(C)c3O)CC2)c(=O)n2nc(-c3cc4c(s3)CCN(CC(F)(F)F)C4)nc2n1CC(=O)Nc1ccc(C(F)(F)F)cc1Cl [Example 179, N-(2-chloro-4-(trifluoromethyl)phenyl)-2-(5-ethyl-6-(4-(5-hydroxy-6-methylpyrimidine-4-carbonyl)piperazin-1-yl)-7-oxo-2-(5-(2,2,2-trifluoroethyl)-4,5,6,7-tetrahydrothieno[3,2-c]pyridin-2-yl)-[1,2,4]triazolo[1,5-a]pyrimidin-4(7H)-yl)acetamide] is lower in IC50: 1 to 100 nM for the first, less than 1 nM for the second.

CCc1c(N2CCN(C(=O)c3ncnc(C)c3O)CC2)c(=O)n2nc(C3=C[C@@H]4C[C@@H]4C3)nc2n1CC(=O)Nc1ccc(S(F)(F)(F)(F)F)cc1 [Example 195, 2-(2-((1R,5R)-bicyclo[3.1.0]hex-2-en-3-yl)-5-ethyl-6-(4-(5-hydroxy-6-methylpyrimidine-4-carbonyl)piperazin-1-yl)-7-oxo-[1,2,4]triazolo[1,5-a]pyrimidin-4(7H)-yl)-N-(4-(pentafluoro-λ6-sulfaneyl)phenyl)acetamide] and CCc1c(N2CCN(C(=O)c3ncnc(C)c3O)CC2)c(=O)n2nc(C(C)=C3CCC3)nc2n1CC(=O)Nc1ccc(S(F)(F)(F)(F)F)cc1 [Example 61, 2-(2-(1-cyclobutylideneethyl)-5-ethyl-6-(4-(5-hydroxy-6-methylpyrimidine-4-carbonyl)piperazin-1-yl)-7-oxo-[1,2,4]triazolo[1,5-a]pyrimidin-4(7H)-yl)-N-(4-(pentafluoro-λ^6-sulfaneyl)phenyl)ace tamide] fall in the same range of IC50: 1 to 100 nM for the first, 1 to 100 nM for the second.

CCc1c(N2CCN(C(=O)c3ncnc(C)c3O)CC2)c(=O)n2nc(-c3ccc4c(c3)C(=O)NC4)nc2n1CC(=O)Nc1ccc(C(F)(F)F)cc1Cl [Example 127, N-(2-chloro-4-(trifluoromethyl)phenyl)-2-(5-ethyl-6-(4-(5-hydroxy-6-methylpyrimidine-4-carbonyl)piperazin-1-yl)-7-oxo-2-(3-oxoisoindolin-5-yl)-[1,2,4]triazolo[1,5-a]pyrimidin-4(7H)-yl)acetamide] and CCc1c(N2CCN(C(=O)c3ncnc(C)c3O)CC2)c(=O)n2nc(-c3ccc4ncnn4c3)nc2n1CC(=O)Nc1ccc(C(F)(F)F)cc1Cl [Example 135, 2-(2-([1,2,4]triazolo[1,5-a]pyridin-6-yl)-5-ethyl-6-(4-(5-hydroxy-6-methylpyrimidine-4-carbonyl)piperazin-1-yl)-7-oxo-[1,2,4]triazolo[1,5-a]pyrimidin-4(7H)-yl)-N-(2-chloro-4-(trifluoromethyl)phenyl)acetamide] fall in the same range of IC50: 1 to 100 nM for the first, 1 to 100 nM for the second.

With CCc1c(N2CCN(C(=O)c3ncnc(C)c3O)CC2)c(=O)n2nc(C3=CCCCCC3)cc2n1CC(=O)Nc1ccc(S(F)(F)(F)(F)F)cc1 [Example 59, 2-(2-(cyclohept-1-en-1-yl)-5-ethyl-6-(4-(5-hydroxy-6-methylpyrimidine-4-carbonyl)piperazin-1-yl)-7-oxopyrazolo[1,5-a]pyrimidin-4(7H)-yl)-N-(4-(pentafluoro-λ^6-sulfaneyl)phenyl)acetamide] the IC50 was 1 to 100 nM.
